Patent publication US20160220489A1, “Intranasal Formulation for the Treatment of Cardiopulmonary Resuscitation (CPR), Cardiac Life Support (CLS), Anaphylaxis and/or Anaphylactoid Reactions” (G2B Pharma Inc., priority 2013, published 2016)
Counter-ions that a name gives are not always drawn. Like-named read-outs stand apart in the source and are kept apart here.

How the values were obtained:
[1] = cited from earlier work
[2] = From the text: Unless otherwise indicated, “primary particle diameter” can refer to the particle size distribution of a powder in its non-aggregated state. Primary particle diameter can be determined using a laser-diffraction particle size distribution analyzer. In some embodiments, the particle size analyzer can be Mastersizer 2000 manufactured by Malvern Instruments Limited.
Unless otherwise indicated, “median diameter” can refer to a diameter that divides particles into two groups of equal numbers: a group with greater diameters and a group with smaller diameters. A median diameter can be determined using a laser-diffraction particle size distribution analyzer and can correspond to 50% volume in a determined cumulative particle size distribution curve. In some embodiments, the particle size analyzer can be Mastersizer 2000 manufactured by Malvern Instruments Limited.
Data Handling • 1. Using Mastersizer 2000 software, combine particle size distribution data obtained for each dispersion pressure. • 2. If necessary, conduct particle size analysis using Wet Dispersion Method. • 3. Choose the optimum dispersion pressure.

rats = details: intramuscular administration in rats; cited from earlier work
[3] = nasal spray, loading dose 5 mg, normal human subjects; cited from earlier work
rabbits = details: inhalation in rabbits; cited from earlier work
MUS = details: in vivo; cited from earlier work
[4] = Dry Dispersion Method, dispersion air pressure 0.5 bar
[5] = Dry Dispersion Method, dispersion air pressure 1.0 bar
[6] = Dry Dispersion Method, dispersion air pressure 2.0 bar
[7] = Dry Dispersion Method, dispersion air pressure 3.0 bar
[8] = Dry Dispersion Method, dispersion air pressure 4.0 bar

For CNC[C@H](O)c1ccc(O)c(O)c1 [epinephrine], the “greatest epinephrine plasma concentrations” value ([1]; intranasal 7.5 mg/kg/nostril of epinephrine after […] of phentolamine, dog) is listed as ~1,400 ng/mL, the “Volume under 10%” value [2, 4] is listed as 17.8 μm and the “Volume under 50%” value [2, 4] is listed as 29.1 μm. For the same compound, the “Volume under 90%” value [2, 4] was 45.9 μm, the “Volume under 10%” value [2, 5] was 15.5 μm and the “Volume under 50%” value [2, 5] was 27.2 μm. For the same compound, the “Volume under 90%” value [2, 5] was 43.6 μm, the “Volume under 10%” value [2, 6] was 4.8 μm and the “Volume under 50%” value [2, 6] was 22.6 μm. For the same compound, the “Volume under 90%” value [2, 6] was 41.8 μm, the “Volume under 10%” value [2, 7] was 2.7 μm and the “Volume under 50%” value [2, 7] was 18.8 μm. For the same compound, the “Volume under 90%” value [2, 7] was 38.6 μm, the “Volume under 10%” value [2, 8] was 2.4 μm and the “Volume under 50%” value [2, 8] was 18.2 μm. The “Volume under 90%” value [2, 8] was 38.3 μm, the “Volume under 10%” value ([2]; Wet Dispersion Method) was 18.1 μm and the “Volume under 50%” value ([2]; Wet Dispersion Method) was 31.2 μm. The “Volume under 90%” value ([2]; Wet Dispersion Method) was 50.7 μm, the LD50 (rats) was 3500 mg/kg and the “Tmax (peak plasma concentration reached)” value [3] was 1.17 ± 0.283 h. The LD50 (rabbits) was 2.5 mg/kg.

In the case of C[C@H](CCC(=O)NCCS(=O)(=O)O)[C@H]1CC[C@H]2[C@@H]3CC[C@@H]4C[C@H](O)CC[C@]4(C)[C@H]3C[C@H](O)[C@]12C [bile salts, taurodeoxycholic acid], the “nasal mucosal tissue damage” value ([1]; used as mucosal permeation enhancers (1% taurodeoxycholic acid)) is listed as “severe nasal mucosal tissue damage”.

In the case of Cc1ccc(N(CC2=NCCN2)c2cccc(O)c2)cc1 [phentolamine], the “IVN-MUS LD50” value (MUS) is given as 75 mg/kg.
